Results taken from patent publication US8106055B2, “Substituted amide compounds” (Gruenenthal GmbH, priority 2007, dated 2012).

Columns and labels:
human μ opiate receptor = biological target: T1, human μ opiate receptor (Homo sapiens, UniProt P35372); assay: Affinity for the human μ opiate receptor ([3H]-naloxone displacement, CHO-K1 receptor membrane preparation, SPA); format: binding; conditions: test concentration of 1 μM; read-out: μ (binding on the μ opioid receptor, % inhibition)
T1 construct: purchased PerkinElmer Life Sciences, Zaventem, Belgium RB-HOM; host or cells: CHO-K1 cells (membrane preparation)
T1 sequence (P35372 whole entry): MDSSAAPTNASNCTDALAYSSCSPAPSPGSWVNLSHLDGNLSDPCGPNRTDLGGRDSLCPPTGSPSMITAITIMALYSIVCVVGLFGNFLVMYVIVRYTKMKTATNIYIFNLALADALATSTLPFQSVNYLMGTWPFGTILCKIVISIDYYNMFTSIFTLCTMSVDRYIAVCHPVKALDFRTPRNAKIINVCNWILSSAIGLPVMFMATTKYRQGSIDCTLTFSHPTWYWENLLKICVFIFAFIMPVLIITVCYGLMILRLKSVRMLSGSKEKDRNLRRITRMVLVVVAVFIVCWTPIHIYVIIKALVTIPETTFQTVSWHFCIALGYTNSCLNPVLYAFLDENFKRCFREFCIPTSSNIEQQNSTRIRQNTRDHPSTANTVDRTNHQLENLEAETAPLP
Procedure, shortened: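 Readout is percent displacement of [3H]-naloxone (1 nmol/l) from human μ receptor in CHO-K1 membranes, measured at 1 μmol/l compound. Incubation runs 90 minutes at room temperature with WGA-SPA beads in Tris-HCl/BSA buffer; non-specific binding is defined with 100 μmol/l naloxone.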

[1] = biological target: T2, serotonin (5-HT) reuptake (Rattus norvegicus, UniProt P31652); assay: Inhibition of serotonin (5HT) reuptake in synaptosomes from rat brain; format: biochemical; conditions: test concentration of 10 μM; read-out: 5-HT (inhibition of reuptake of serotonin, % inhibition)
T2 construct: synaptosomes are freshly isolated from areas of the rat brain; from tissue; host or cells: rat brain synaptosomes (P2 fraction)
T2 sequence (P31652 whole entry): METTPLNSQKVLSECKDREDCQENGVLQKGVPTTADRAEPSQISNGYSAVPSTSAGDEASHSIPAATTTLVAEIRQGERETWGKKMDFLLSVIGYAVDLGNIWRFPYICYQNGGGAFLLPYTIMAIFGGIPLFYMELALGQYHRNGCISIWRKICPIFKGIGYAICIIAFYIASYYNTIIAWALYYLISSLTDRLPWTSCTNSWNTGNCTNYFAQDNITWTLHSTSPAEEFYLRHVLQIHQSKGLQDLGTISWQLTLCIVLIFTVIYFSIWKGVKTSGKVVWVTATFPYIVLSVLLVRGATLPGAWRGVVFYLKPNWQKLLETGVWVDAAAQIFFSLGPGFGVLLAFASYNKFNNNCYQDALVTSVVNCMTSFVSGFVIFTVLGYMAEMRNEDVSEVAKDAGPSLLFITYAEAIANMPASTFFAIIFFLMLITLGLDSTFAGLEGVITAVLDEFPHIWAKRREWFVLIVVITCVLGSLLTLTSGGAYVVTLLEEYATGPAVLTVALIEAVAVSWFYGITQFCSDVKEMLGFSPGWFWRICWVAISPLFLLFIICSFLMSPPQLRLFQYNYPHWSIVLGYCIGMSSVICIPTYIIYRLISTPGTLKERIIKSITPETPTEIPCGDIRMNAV
Procedure, shortened: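 Freshly isolated rat brain synaptosomes (P2 fraction) used for 5-HT reuptake. Test compound at 10 μM, activity given as % inhibition.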

SMILES: CN(C)C(c1cccc(F)c1)C1CCC(CNC(=O)COCCN(C)S(=O)(=O)c2c(Cl)cc(Cl)cc2Cl)CC1 (centres unmarked) [Example 188, N-((4-((dimethylamino)(3-fluorophenyl)methyl)cyclohexyl)methyl)-2-(2-(2,4,6-trichloro-N-methylphenylsulfonamido)ethoxy)acetamide]
- inhibition at 1 µM (human μ opiate receptor): 87%
- inhibition at 10 µM [1]: 98%

SMILES: COc1cc(C)c(S(=O)(=O)N2CCC(OCC(=O)NCCC3CCC(C(c4cccs4)N(C)C)CC3)CC2)c(C)c1C (centres unmarked) [Example 177, N-(2-(4-((dimethylamino)(thiophen-2-yl)methyl)cyclohexyl)ethyl)-2-(1-(4-methoxy-2,3,6-trimethylphenylsulfonyl)piperidin-4-yloxy)acetamide]
- inhibition at 1 µM (human μ opiate receptor): 88%
- inhibition at 10 µM [1]: 93%

SMILES: COc1cc(C)c(S(=O)(=O)N2CCCC(OCC(=O)NC3CCC(C(c4cccs4)N(C)C)CC3)C2)c(C)c1C (centres unmarked) [Example 144, N-(4-((dimethylamino)(thiophen-2-yl)methyl)cyclohexyl)-2-(1-(4-methoxy-2,3,6-trimethylphenylsulfonyl)piperidin-3-yloxy)acetamide]
- inhibition at 1 µM (human μ opiate receptor): 89%
- inhibition at 10 µM [1]: 87%

SMILES: CCN(CCOCC(=O)NC1CCC(C(c2cccc(F)c2)N(C)C)CC1)S(=O)(=O)c1c(C)cc(OC)c(C)c1C (centres unmarked) [Example 176, N-(4-((dimethylamino)(3-fluorophenyl)methyl)cyclohexyl)-2-(2-(N-ethyl-4-methoxy-2,3,6-trimethylphenylsulfonamido)ethoxy)acetamide]
- inhibition at 1 µM (human μ opiate receptor): 87%
- inhibition at 10 µM [1]: 90%

SMILES: COc1cc(C)c(S(=O)(=O)N(CCOCC(=O)NCC2CCC(C(c3ccccc3)N(C)C)CC2)Cc2ccccc2)c(C)c1 (centres unmarked) [Example 148, 2-(2-(N-benzyl-4-methoxy-2,6-dimethylphenylsulfonamido)ethoxy)-N-((4-((dimethylamino)(phenyl)methyl)cyclohexyl)methyl)acetamide]
- inhibition at 1 µM (human μ opiate receptor): 90%
- inhibition at 10 µM [1]: 95%

SMILES: COc1cc(C)c(S(=O)(=O)N(C)CCOCC(=O)NCC2CCC(C(c3ccccc3)N(C)C)CC2)c(C)c1 (centres unmarked) [Example 137, N-((4-((dimethylamino)(phenyl)methyl)cyclohexyl)methyl)-2-(2-(4-methoxy-N,2,6-trimethylphenylsulfonamido)ethoxy)acetamide]
- inhibition at 1 µM (human μ opiate receptor): 89%
- inhibition at 10 µM [1]: 89%

SMILES: COc1ccc(S(=O)(=O)N2CCCCC2COCC(=O)NCCC2CCC(C(c3cccc(F)c3)N(C)C)CC2)cc1 (centres unmarked) [Example 180, N-(2-(4-((dimethylamino)(3-fluorophenyl)methyl)cyclohexyl)ethyl)-2-((1-(4-methoxyphenylsulfonyl)piperidin-2-yl)methoxy)acetamide]
- inhibition at 1 µM (human μ opiate receptor): 90%
- inhibition at 10 µM [1]: 93%

SMILES: CN(C)C(c1cccs1)C1CCC(CCNC(=O)COCCN(C)S(=O)(=O)c2ccc(Cl)cc2Cl)CC1 (centres unmarked) [Example 9, 2-(2-(2,4-dichloro-N-methylphenylsulfonamido)ethoxy)-N-(2-(4-((dimethylamino) (thiophen-2-yl)methyl)cyclohexyl)ethyl)acetamide]
- inhibition at 1 µM (human μ opiate receptor): 98%
- inhibition at 10 µM [1]: 91%

SMILES: CN(C)C(c1ccccc1)C1CCC(NC(=O)COCCN(C)S(=O)(=O)c2c(F)c(F)c(F)c(F)c2F)CC1 (centres unmarked) [Example 136, N-(4-((dimethylamino)(phenyl)methyl)cyclohexyl)-2-(2-(2,3,4,5,6-pentafluoro-N-methylphenylsulfonamido)ethoxy)acetamide]
- inhibition at 1 µM (human μ opiate receptor): 89%
- inhibition at 10 µM [1]: 83%

SMILES: CN(C)C(c1cccc(F)c1)C1CCC(NC(=O)COC2CCN(S(=O)(=O)c3cccc(C(F)(F)F)c3)C2)CC1 (centres unmarked) [Example 139, N-(4-((dimethylamino)(3-fluorophenyl)methyl)cyclohexyl)-2-(1-(3-(trifluoromethyl)phenylsulfonyl)pyrrolidin-3-yloxy)acetamide]
- inhibition at 1 µM (human μ opiate receptor): 83%
- inhibition at 10 µM [1]: 79%

SMILES: CN(C)C(c1cccs1)C1CCC(NC(=O)COC2CCN(S(=O)(=O)c3ccc(F)cc3)C2)CC1 (centres unmarked) [Example 28, N-(4-((dimethylamino)(thiophen-2-yl)methyl)cyclohexyl)-2-(1-(4-fluorophenylsulfonyl)pyrrolidin-3-yloxy)acetamide]
- inhibition at 1 µM (human μ opiate receptor): 97%
- inhibition at 10 µM [1]: 76%

SMILES: CN(C)C(c1cccs1)C1CCC(CCNC(=O)COCCN(C)S(=O)(=O)c2cccc(C(F)(F)F)c2)CC1 (centres unmarked) [Example 32, N-(2-(4-((dimethylamino)(thiophen-2-yl)methyl)cyclohexyl)ethyl)-2-(2-(N-methyl-3-(trifluoromethyl)phenylsulfonamido)ethoxy)acetamide]
- inhibition at 1 µM (human μ opiate receptor): 97%
- inhibition at 10 µM [1]: 97%

SMILES: COc1ccc(S(=O)(=O)N2CCCCC2COCC(=O)NCC2CCC(C(c3cccc(F)c3)N(C)C)CC2)cc1 (centres unmarked) [Example 179, N-((4-((dimethylamino)(3-fluorophenyl)methyl)cyclohexyl)methyl)-2-((1-(4-methoxyphenylsulfonyl)piperidin-2-yl)methoxy)acetamide]
- inhibition at 1 µM (human μ opiate receptor): 85%
- inhibition at 10 µM [1]: 92%

SMILES: CN(C)C(c1cccc(F)c1)C1CCC(CCNC(=O)COCC2CCCCN2S(=O)(=O)c2ccc(Cl)c(Cl)c2)CC1 (centres unmarked) [Example 147, 2-((1-(3,4-dichlorophenylsulfonyl)piperidin-2-yl)methoxy)-N-(2-(4-((dimethylamino)(3-fluorophenyl)methyl)cyclohexyl)ethyl)acetamide]
- inhibition at 1 µM (human μ opiate receptor): 90%
- inhibition at 10 µM [1]: 96%

SMILES: CN(C)C(c1cccs1)C1CCC(CCNC(=O)COC2CCN(S(=O)(=O)c3ccc(F)cc3)C2)CC1 (centres unmarked) [Example 138, N-(2-(4-((dimethylamino)(thiophen-2-yl)methyl)cyclohexyl)ethyl)-2-(1-(4-fluorophenylsulfonyl)pyrrolidin-3-yloxy)acetamide]
- inhibition at 1 µM (human μ opiate receptor): 87%
- inhibition at 10 µM [1]: 98%

SMILES: Cc1cc(C)c(S(=O)(=O)N2CCC(OCC(=O)NCC3CCC(C(c4cccs4)N(C)C)CC3)C2)c(C)c1 (centres unmarked) [Example 27, N-((4-((dimethylamino)(thiophen-2-yl)methyl)cyclohexyl)methyl)-2-(1-(mesitylsulfonyl)pyrrolidin-3-yloxy)acetamide]
- inhibition at 1 µM (human μ opiate receptor): 97%
- inhibition at 10 µM [1]: 84%

SMILES: COc1ccc(S(=O)(=O)N(C)CCOCC(=O)NCC2CCC(C(c3cccs3)N(C)C)CC2)cc1 (centres unmarked) [Example 142, N-((4-((dimethylamino)(thiophen-2-yl)methyl)cyclohexyl)methyl)-2-(2-(4-methoxy-N-methylphenylsulfonamido)ethoxy)acetamide]
- inhibition at 1 µM (human μ opiate receptor): 89%
- inhibition at 10 µM [1]: 70%

SMILES: COc1ccc(S(=O)(=O)N2Cc3ccccc3CC2COCC(=O)NCC2CCC(C(c3cccc(F)c3)N(C)C)CC2)cc1 (centres unmarked) [Example 163, N-((4-((dimethylamino)(3-fluorophenyl)methyl)cyclohexyl)methyl)-2-((2-(4-methoxyphenylsulfonyl)-1,2,3,4-tetrahydroisoquinolin-3-yl)methoxy)acetamide]
- inhibition at 1 µM (human μ opiate receptor): 87%
- inhibition at 10 µM [1]: 96%

SMILES: CN(C)C(c1ccccc1)C1CCC(CNC(=O)COCC2CCCN2S(=O)(=O)c2ccc(Cl)c(Cl)c2)CC1 (centres unmarked) [Example 18, 2-((1-(3,4-dichlorophenylsulfonyl)pyrrolidin-2-yl)methoxy)-N-((4-((dimethylamino)(phenyl)methyl)cyclohexyl)methyl)acetamide]
- inhibition at 1 µM (human μ opiate receptor): 98%
- inhibition at 10 µM [1]: 95%
